Like-named read-outs stand apart in the source and are kept apart here.
Columns and labels:
[1] = type: physicochemical
Text: Strain-promoted lowering of the Si σ* energy in cyclic silanes is another approach to red-shift emission. Treatment of 1-1 with cyclohexyl dichlorosilane yielded the expected Si-rhodamine dye (Scheme 1A). However, the reactions with the corresponding five and four-membered ring analogs yielded many side products. The cyclopentyl analog 028 was obtained in good yield through an alternate synthetic pathway (Scheme 4), but the four-membered ring analog could not be isolated by either route. The silacyclopentyl analog is red-shifted compared to 001 and compound 014, consistent with a strain-induced LUMO-lowering effect (Table 3).
Scheme 10. Instability of silacyclopentyl dye 028 in solution. Proposed ring-opened product in methanol (the solvent used for HRMS analysis).

[2] = for ϕ (quantum yield): pH 7.4
[3] = KL-Z lactone-zwitterion equilibrium; type: physicochemical; conditions: 1:1 v/v dioxane:water
[4] = system: hairpin DNA oligonucleotide (hpDNA); assay: Photophysical properties after 2 h treatment with hairpin DNA (hpDNA); type: physicochemical; conditions: for Brightness (ε × ϕ) / ε (M^−1 cm^−1) / λem (nm) / λex (nm) / ϕ: +30 μM hpDNA, 2 h; for brightness: in the presence of 30 μM hpDNA
Description: Absorption and fluorescence spectra were measured on a Horiba Duetta fluorescence and absorbance spectrometer in quartz cuvettes (Starna Cells, catalog #3-Q-10). Extinction coefficients were calculated from plots of absorption versus concentration. Quantum yields were measured on a Hamamatsu Quantaurus QY C-11347-11 absolute quantum yield integrating sphere spectrometer at absorption values of <0.1 in side-arm quartz cuvettes (Hamamatsu cat #A10095-02). All measurements were performed in PBS (9.0 g/l NaCl, 0.795 g/l Na2HPO4, 0.144 g/l KH2PO4, pH 7.4, Corning cat #21-040-CV), ethanol, or 0.1% TFA/ethanol and prepared from stock solutions of dyes in DMSO, with final DMSO <1%. […] Selected KLZ values were determined in 1:1 v/v dioxane:water as previously described.
Spirolactonizable Si-rhodamines are particularly valuable for live cell imaging. They typically exist in a nonfluorescent, neutral cell-permeable form that can convert to a highly fluorescent form when bound to particular targets, such as DNA or the protein HaloTag®. This fluorogenic response occurs when the nonfluorescent spirolactone ring opens, generating a zwitterionic dye (Scheme 12). To date, all examples of fluorogenic Si-rhodamine dyes have been modified with targeting groups directly on the pendant phenyl ring that forms the spirolactone. It is not obvious whether this same fluorogenic behavior would also occur with dyes that are modified with targeting groups on the more distal silyl group. SiR-DNA (Spirochrome) is a commercially-available Si-rhodamine dye with the DNA-targeting ligand Hoechst 33258 attached to the pendant phenyl ring (Schemes 13A-C), allowing specific labeling of the nucleus in live cells. Therefore, two Hoechst 33258-modified Si-Bridge isomers were synthesized via direct reaction of the phenol of Hoechst 33258 with the isomeric Si-iodopropyl dyes compounds 047 and 048 (Scheme 6), and then assessed their ability to label the nucleus in live HeLa cells compared to SiR-DNA (FIGS. 2A-2C). […] To gain more insight into the molecular basis for this difference, the photophysical properties of compounds 061 and 062 were evaluated in vitro in the presence and absence of a hairpin DNA oligonucleotide (hpDNA) (Table 4). Like SiR-DNA, these dyes are quenched and virtually nonfluorescent in PBS, with quantum yields <0.02 and brightness of <130 M^−1 cm^−1.

[5] = system: nucleus in live HeLa cells; assay: No-wash live cell imaging of the nucleus with a Si-bridge dye; type: cell-based; conditions: confocal, Cy5 channel
Description: HeLa cells were cultured in Dulbecco's modified Eagle medium (DMEM, from GIBCO, catalog no. 11995065) supplemented with 10% fetal bovine serum (FBS) (GIBCO, catalog no. 10437028) and 1% penicillin-streptomycin (Sigma) at 37° C. in a 5% CO2 incubator. For imaging, cells were seeded in 35 mm glass bottom dishes (Cellvis, catalog no. D35-28-O—N). […] Dyes fluorescing in the Cy5 channel were excited with the HeNe (633 nm) laser at a 15% intensity and detected through a 640-615 band pass filter, and EGFP was excited with the Argon (488 nm) laser. Image analysis was performed using Leica LAS X SP8 software and ImageJ software.

[6] = biological target: T1, SNAP-tag (pSNAPf-H2B) in HeLa cells (Homo sapiens, UniProt P16455, A127T/A154D/C150Q/C62A/E30R/G131K/G132T/G153L/K125A/K32I/L33F/M134L/N157G/Q115S/Q116H/R128A/R135S/S151G/S152D/S159E); assay: Live cell imaging of SNAP-tag-expressing cells with Si-bridge dyes; type: cell-based; conditions: 3 μM dye, 30 min, 37° C., washed, HeLa transfected with pSNAPf-H2B
T1 construct: host or cells: HeLa cells, transient transfection with Lipofectamine 2000
T1 sequence (P16455 1-182 E30R/K32I/L33F/C62A/Q115S/Q116H/K125A/A127T/R128A/G131K/G132T/M134L/R135S/C150Q/S151G/S152D/G153L/A154D/N157G/S159E limits assumed): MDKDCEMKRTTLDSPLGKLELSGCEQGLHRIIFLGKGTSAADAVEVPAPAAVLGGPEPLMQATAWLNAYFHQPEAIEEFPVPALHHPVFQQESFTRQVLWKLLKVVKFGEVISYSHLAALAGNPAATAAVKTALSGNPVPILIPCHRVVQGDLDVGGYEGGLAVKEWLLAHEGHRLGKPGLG
Description: HeLa cells were seeded in 35 mm glass bottom dishes (Cellvis, catalog no. D35-28-O-N), and transfected with […] control plasmid (Addgene #101124). Transient transfections were performed using Lipofectamine 2000 (Invitrogen, catalog no. 1168019) following the manufacturer's instructions. HeLa cell labeling and confocal imaging were performed 24 hr after transfection. Labeling with SNAP-Cell® 647 SiR (New England Biolabs, catalog no. […]) and new dyes 065 and 066 containing benzylguanine SNAP-tag ligands were performed following the manufacturer's instructions. SNAP-tag is another popular system for labeling fusion proteins. SNAP-tag is more promiscuous towards its substrates than HaloTag, and thus it was anticipated that the relative fluorogenic behavior for each Si-bridge dye isomer would differ from the stark facial selectivity results seen above with Hoechst probes and HaloTag. Briefly, cells were incubated with 3 μM dye in cell culture medium for 30 min at 37° C. The cells were then washed three times with tissue culture medium and incubated in fresh medium for 30 minutes. The medium was replaced one more time to remove unreacted […] before imaging. […] Dyes fluorescing in the Cy5 channel were excited with the HeNe (633 nm) laser at a 15% intensity and detected through a 640-615 band pass filter and […] pinhole. […]

[7] = spirolactone dyes, table title says PBS, text (b560-b564) says maximal ε when ring-opened in EtOH/0.1% TFA
[8] = spirolactone dyes, ϕ in PBS × ε in EtOH/0.1% TFA

Structure (SMILES): Cc1ccccc1C1=C2C=CC(=[N+](C)C)C=C2[Si]2(CCCC2)c2cc(N(C)C)ccc21 [Compound 028, N-(7-(Dimethylamino)-10-(o-tolyl)-3H-spiro[dibenzo[b,e]siline-5,1′-silolan]-3-ylidene)-N-methylmethanaminium]
- chemical stability in solution [1]: chemically unstable in solution
- Brightness (ϕ × ε) ([2]; PBS): 54,826
- Em (nm) ([2]; PBS): 671 nm
- Ex (nm) ([2]; PBS): 653 nm
- ε (M^−1 cm^−1) ([2]; PBS): 158,000 M^−1 cm^−1
- ϕ (quantum yield) ([2]; PBS): 0.35

Structure (SMILES): C[Si]1(C)c2cc(N3CCC3)ccc2C2(OC(=O)c3ccccc32)c2ccc(N3CCC3)cc21 [Compound 031, 3,7-Di(azetidin-1-yl)-5,5-dimethyl-3′H,5H-spiro[dibenzo[b,e]siline-10,1′-isobenzofuran]-3′-one, reference compound]
- KL-Z lactone-zwitterion equilibrium value [3]: 0.0034
- Em (nm) ([2]; PBS): 664 nm
- Ex (nm) ([2]; PBS): 646 nm
- ϕ (quantum yield) ([2]; PBS): 0.45
- ε (M^−1 cm^−1) [2, 7]: 156,000 M^−1 cm^−1
- Brightness (ϕ × ε) [2, 8]: 70,200

Structure (SMILES): CN(C)c1ccc2c(c1)[Si](C)(C)c1cc(N(C)C)ccc1C21OC(=O)c2ccccc21 [Compound 032, 3,7-Bis(dimethylamino)-5,5-dimethyl-3′H,5H-spiro[dibenzo[b,e]siline-10,1′-isobenzofuran]-3′-one, reference compound]
- KL-Z lactone-zwitterion equilibrium value [3]: 0.002
- Em (nm) ([2]; PBS): 667 nm
- Ex (nm) ([2]; PBS): 648 nm
- ϕ (quantum yield) ([2]; PBS): 0.38
- ε (M^−1 cm^−1) [2, 7]: 130,000 M^−1 cm^−1
- Brightness (ϕ × ε) [2, 8]: 49,400

Structure (SMILES): C=C[Si]1(C=C)c2cc(N3CCC3)ccc2C2(OC(=O)c3ccccc32)c2ccc(N3CCC3)cc21 [Compound 034, 3,7-Di(azetidin-1-yl)-5,5-divinyl-3′H,5H-spiro[dibenzo[b,e]siline-10,1′-isobenzofuran]-3′-one]
- KL-Z lactone-zwitterion equilibrium value [3]: 0.00125
- extinction coefficient (maximum) in EtOH/0.1% TFA ([2]; EtOH/0.1% TFA): 80,000 M−1 cm−1
- Em (nm) ([2]; SDS): 675 nm
- Ex (nm) ([2]; SDS): 656 nm
- extinction coefficient in anhydrous EtOH/0.1% TFA ([2]; anhydrous EtOH/0.1% TFA): ~144 000 M−1 cm-1
- ε (M^−1 cm^−1) [2, 7]: 80,000 M^−1 cm^−1

Structure (SMILES): CN1CCN(c2ccc3[nH]c(-c4ccc5[nH]c(-c6ccc(OCCC[Si@]7(C)c8cc(N(C)C)ccc8[C@]8(OC(=O)c9ccccc98)c8ccc(N(C)C)cc87)cc6)nc5c4)nc3c2)CC1 [Compound 061, (5s,10s)-3,7-Bis(dimethylamino)-5-methyl-5-(3-(4-(5-(4-methylpiperazin-1-yl)-1H,1′H-[2,5′-bibenzo[d]imidazol]-2′-yl)phenoxy)propyl)-3′H,5H-spiro[dibenzo[b,e]siline-10,1′-isobenzofuran]-3′-one]
- Brightness (ε × ϕ) [4]: 550
- ε (M^−1 cm^−1) [4]: 5,500 M^−1cm^−1
- λem (nm) [4]: 672 nm
- λex (nm) [4]: 658 nm
- ϕ [4]: 0.10
- brightness [4]: 550 M⁻¹ cm⁻¹
- labeling of the nucleus in live HeLa cells [5]: no labeling of the nucleus
- Brightness (ε × ϕ) ([2]; 0.1% SDS/PBS, 2 h incubation): 10,965
- ε (M^−1 cm^−1) ([2]; 0.1% SDS/PBS, 2 h incubation): 25,500 M^−1cm^−1
- λem (nm) ([2]; 0.1% SDS/PBS, 2 h incubation): 668 nm
- λex (nm) ([2]; 0.1% SDS/PBS, 2 h incubation): 650 nm
- ϕ ([2]; 0.1% SDS/PBS, 2 h incubation): 0.43
- Brightness (ε × ϕ) ([2]; Hoechst probe in PBS): 130
- ε (M^−1 cm^−1) ([2]; Hoechst probe in PBS): 6,500 M^−1cm^−1
- λex (nm) ([2]; Hoechst probe in PBS): 660 nm
- ϕ ([2]; Hoechst probe in PBS): 0.02

Structure (SMILES): CN1CCN(c2ccc3[nH]c(-c4ccc5[nH]c(-c6ccc(OCCC[Si@]7(C)c8cc(N(C)C)ccc8[C@@]8(OC(=O)c9ccccc98)c8ccc(N(C)C)cc87)cc6)nc5c4)nc3c2)CC1 [Compound 062, (5r,10r)-3,7-Bis(dimethylamino)-5-methyl-5-(3-(4-(5-(4-methylpiperazin-1-yl)-1H,1′H-[2,5′-bibenzo[d]imidazol]-2′-yl)phenoxy)propyl)-3′H,5H-spiro[dibenzo[b,e]siline-10,1′-isobenzofuran]-3′-one]
- Brightness (ε × ϕ) [4]: 10,400
- ε (M^−1 cm^−1) [4]: 26,000 M^−1cm^−1
- λem (nm) [4]: 670 nm
- λex (nm) [4]: 653 nm
- ϕ [4]: 0.40
- brightness [4]: 10 400 M^−1 cm^−1
- extinction coefficient ([4]; in the presence of 30 mM hpDNA): 26 000 M^−1 cm^−1
- quantum yield ([4]; in the presence of 30 mM hpDNA): 0.40
- labeling of the nucleus in live HeLa cells [5]: highly fluorogenic, labeling only the nucleus in live cells
- Brightness (ε × ϕ) ([2]; 0.1% SDS/PBS, 2 h incubation): 64,770
- ε (M^−1 cm^−1) ([2]; 0.1% SDS/PBS, 2 h incubation): 127,000 M^−1cm^−1
- λem (nm) ([2]; 0.1% SDS/PBS, 2 h incubation): 670 nm
- λex (nm) ([2]; 0.1% SDS/PBS, 2 h incubation): 649 nm
- ϕ ([2]; 0.1% SDS/PBS, 2 h incubation): 0.51
- Brightness (ε × ϕ) ([2]; Hoechst probe in PBS): 90
- ε (M^−1 cm^−1) ([2]; Hoechst probe in PBS): 10,000 M^−1cm^−1
- λex (nm) ([2]; Hoechst probe in PBS): 663 nm

Structure (SMILES): CN(C)c1ccc2c(c1)[Si@](C)(CCCSCC(=O)NCc1ccc(COc3nc(N)nc4[nH]cnc34)cc1)c1cc(N(C)C)ccc1[C@]21OC(=O)c2ccccc21 [Compound 065, N-(4-(((2-Amino-9H-purin-6-yl)oxy)methyl)benzyl)-2-((3-((5s,10s)-3,7-bis(dimethylamino)-5-methyl-3′-oxo-3′H,5H-spiro[dibenzo[b,e]siline-10,1′-isobenzofuran]-5-yl)propyl)thio)acetamide]
- labeling of SNAP-tag [6]: labeled SNAP-tag

Structure (SMILES): CN(C)c1ccc2c(c1)[Si@](C)(CCCSCC(=O)NCc1ccc(COc3nc(N)nc4[nH]cnc34)cc1)c1cc(N(C)C)ccc1[C@@]21OC(=O)c2ccccc21 [Compound 066, N-(4-(((2-Amino-9H-purin-6-yl)oxy)methyl)benzyl)-2-((3-((5r,10r)-3,7-bis(dimethylamino)-5-methyl-3′-oxo-3′H,5H-spiro[dibenzo[b,e]siline-10,1′-isobenzofuran]-5-yl)propyl)thio)acetamide]
- labeling of SNAP-tag [6]: labeled SNAP-tag

— patent US20250003877A1, “Silyl Bridged Dyes” (priority 2021, published 2025)
